This is an account of results in patent US11208412B2 (DAEGU-GYEONGBUK MEDICAL INNOVATION FOUNDATION, priority 2017, dated 2021).

Molecules are shown by their SMILES.

What all share (assay): Kinase selectivity, DiscoverX scanMAX Kinase assay panel (% control)
Common to all, as to format: binding

The target of assay [1] is T1, kinases of the scanMAX Kinase assay panel (Homo sapiens, UniProt P43403).
T1 construct: purchased DiscoverX Co. (contract measurement) scanMAX Kinase assay panel
T1 sequence (P43403 1-619): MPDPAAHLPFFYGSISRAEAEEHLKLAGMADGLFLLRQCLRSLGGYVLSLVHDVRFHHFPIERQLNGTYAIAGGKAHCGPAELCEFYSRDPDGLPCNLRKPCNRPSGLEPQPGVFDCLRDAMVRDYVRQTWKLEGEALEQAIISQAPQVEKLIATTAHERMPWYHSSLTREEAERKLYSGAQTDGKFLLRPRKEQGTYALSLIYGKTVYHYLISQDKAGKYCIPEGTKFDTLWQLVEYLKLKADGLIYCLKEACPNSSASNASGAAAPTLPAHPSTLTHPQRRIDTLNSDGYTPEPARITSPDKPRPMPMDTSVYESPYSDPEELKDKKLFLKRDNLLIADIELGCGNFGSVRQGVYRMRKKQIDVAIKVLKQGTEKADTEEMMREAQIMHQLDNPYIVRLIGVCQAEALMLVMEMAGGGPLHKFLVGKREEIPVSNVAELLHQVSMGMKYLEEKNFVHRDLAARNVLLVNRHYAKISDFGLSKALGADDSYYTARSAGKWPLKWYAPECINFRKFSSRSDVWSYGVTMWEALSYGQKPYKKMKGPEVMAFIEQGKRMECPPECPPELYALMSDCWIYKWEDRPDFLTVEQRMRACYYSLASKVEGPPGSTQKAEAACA
The settings on record: kinase ZAP70; 1 uM in DMSO. A digest of the protocol: (§1)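 Binding-panel profiling at one concentration, 1 uM in DMSO; values are % of DMSO control after subtracting the positive-control floor. Less than 35% means activity on that kinase.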

The target of assay [2] is T2, kinases of the scanMAX Kinase assay panel (Homo sapiens, UniProt Q02156).
T2 construct: purchased DiscoverX Co. (contract measurement) scanMAX Kinase assay panel
T2 sequence (Q02156 1-737): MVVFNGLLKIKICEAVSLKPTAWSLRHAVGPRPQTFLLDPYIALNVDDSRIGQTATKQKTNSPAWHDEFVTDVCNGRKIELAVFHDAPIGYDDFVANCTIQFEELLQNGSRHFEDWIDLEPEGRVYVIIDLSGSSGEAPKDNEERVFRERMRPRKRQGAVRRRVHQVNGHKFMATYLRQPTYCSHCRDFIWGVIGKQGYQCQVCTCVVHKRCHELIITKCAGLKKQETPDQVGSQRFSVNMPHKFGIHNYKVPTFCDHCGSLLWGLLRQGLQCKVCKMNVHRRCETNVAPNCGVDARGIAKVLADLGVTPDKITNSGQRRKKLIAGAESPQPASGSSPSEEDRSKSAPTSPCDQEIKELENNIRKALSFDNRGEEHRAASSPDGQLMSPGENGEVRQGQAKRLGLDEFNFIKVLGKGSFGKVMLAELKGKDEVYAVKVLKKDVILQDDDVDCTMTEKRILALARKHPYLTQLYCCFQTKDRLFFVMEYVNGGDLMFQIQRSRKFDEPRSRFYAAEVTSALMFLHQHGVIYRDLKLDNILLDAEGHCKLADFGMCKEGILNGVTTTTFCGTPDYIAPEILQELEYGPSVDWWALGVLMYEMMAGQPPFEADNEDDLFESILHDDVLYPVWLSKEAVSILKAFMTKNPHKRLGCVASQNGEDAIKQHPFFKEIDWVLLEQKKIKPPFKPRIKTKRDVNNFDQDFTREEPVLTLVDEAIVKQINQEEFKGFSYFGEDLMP
The settings on record: PRKCE; 1 uM. A digest of the protocol:
as §1

For assay [3], the target named is T3, kinases of the scanMAX Kinase assay panel (Homo sapiens, UniProt Q13043).
T3 construct: purchased DiscoverX Co. (contract measurement) scanMAX Kinase assay panel
T3 sequence (Q13043 1-487): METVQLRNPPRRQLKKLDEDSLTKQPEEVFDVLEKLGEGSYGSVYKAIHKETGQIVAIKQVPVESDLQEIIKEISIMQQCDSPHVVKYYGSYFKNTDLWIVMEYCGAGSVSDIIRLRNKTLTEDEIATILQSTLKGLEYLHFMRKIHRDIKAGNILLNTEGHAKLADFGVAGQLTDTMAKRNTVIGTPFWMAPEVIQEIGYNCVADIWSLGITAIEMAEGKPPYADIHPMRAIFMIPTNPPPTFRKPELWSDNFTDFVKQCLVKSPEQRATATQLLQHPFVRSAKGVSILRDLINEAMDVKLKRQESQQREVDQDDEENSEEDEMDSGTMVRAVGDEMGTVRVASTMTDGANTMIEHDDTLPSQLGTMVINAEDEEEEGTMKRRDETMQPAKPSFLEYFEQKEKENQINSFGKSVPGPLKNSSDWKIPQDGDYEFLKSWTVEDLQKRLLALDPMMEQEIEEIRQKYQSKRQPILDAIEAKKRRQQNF
The settings on record: MST1; 1 uM. The essentials: as §1

Assay [4] addresses T4, kinases of the scanMAX Kinase assay panel (Homo sapiens, UniProt Q13233).
T4 construct: purchased DiscoverX Co. (contract measurement) scanMAX Kinase assay panel
The settings on record: MAP3K1; 1 uM. The essentials: as §1

Assay [5] has as its target T5, kinases of the scanMAX Kinase assay panel (Homo sapiens, UniProt Q13557).
T5 construct: purchased DiscoverX Co. (contract measurement) scanMAX Kinase assay panel
The settings on record: CAMK2D; 1 uM. A digest of the protocol: as §1

The target of assay [6] is T6, kinases of the scanMAX Kinase assay panel (Homo sapiens, UniProt Q9BVS4).
T6 construct: purchased DiscoverX Co. (contract measurement) scanMAX Kinase assay panel
T6 sequence (Q9BVS4 whole entry): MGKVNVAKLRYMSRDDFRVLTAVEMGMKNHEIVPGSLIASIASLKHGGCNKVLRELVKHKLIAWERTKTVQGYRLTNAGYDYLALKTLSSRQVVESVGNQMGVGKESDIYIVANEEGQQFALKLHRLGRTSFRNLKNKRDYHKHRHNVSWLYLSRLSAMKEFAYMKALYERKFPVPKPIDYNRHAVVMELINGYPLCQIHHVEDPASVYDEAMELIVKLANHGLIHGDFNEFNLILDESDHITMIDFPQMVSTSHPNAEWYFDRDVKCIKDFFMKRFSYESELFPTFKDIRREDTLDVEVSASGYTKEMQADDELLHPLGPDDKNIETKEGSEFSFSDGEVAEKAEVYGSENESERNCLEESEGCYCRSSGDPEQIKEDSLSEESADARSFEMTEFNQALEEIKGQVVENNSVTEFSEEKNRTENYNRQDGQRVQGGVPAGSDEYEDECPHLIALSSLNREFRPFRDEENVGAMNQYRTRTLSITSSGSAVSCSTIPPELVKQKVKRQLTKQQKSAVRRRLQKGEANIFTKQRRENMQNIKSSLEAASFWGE
The settings on record: kinase RIOK2; 1 uM in DMSO. A digest of the protocol:
as §1

The target of assay [7] is T7, kinases of the scanMAX Kinase assay panel (Homo sapiens, UniProt Q9BWU1).
T7 construct: purchased DiscoverX Co. (contract measurement) scanMAX Kinase assay panel
T7 sequence (Q9BWU1 whole entry): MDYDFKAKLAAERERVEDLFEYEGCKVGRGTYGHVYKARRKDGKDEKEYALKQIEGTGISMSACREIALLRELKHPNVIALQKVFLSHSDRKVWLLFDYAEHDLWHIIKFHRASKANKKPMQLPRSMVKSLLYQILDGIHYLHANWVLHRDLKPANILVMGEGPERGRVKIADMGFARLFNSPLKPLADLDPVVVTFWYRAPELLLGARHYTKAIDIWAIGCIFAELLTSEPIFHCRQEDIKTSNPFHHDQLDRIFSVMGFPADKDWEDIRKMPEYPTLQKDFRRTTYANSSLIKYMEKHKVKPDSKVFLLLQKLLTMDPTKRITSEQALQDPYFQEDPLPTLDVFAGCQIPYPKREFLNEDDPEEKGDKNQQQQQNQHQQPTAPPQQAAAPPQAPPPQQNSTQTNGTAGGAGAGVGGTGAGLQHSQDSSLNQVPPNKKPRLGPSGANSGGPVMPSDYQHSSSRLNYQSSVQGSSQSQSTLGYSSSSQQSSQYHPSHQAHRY
The settings on record: CDK11; 1 uM. The essentials: as §1

T5 sequence (Q13557 whole entry): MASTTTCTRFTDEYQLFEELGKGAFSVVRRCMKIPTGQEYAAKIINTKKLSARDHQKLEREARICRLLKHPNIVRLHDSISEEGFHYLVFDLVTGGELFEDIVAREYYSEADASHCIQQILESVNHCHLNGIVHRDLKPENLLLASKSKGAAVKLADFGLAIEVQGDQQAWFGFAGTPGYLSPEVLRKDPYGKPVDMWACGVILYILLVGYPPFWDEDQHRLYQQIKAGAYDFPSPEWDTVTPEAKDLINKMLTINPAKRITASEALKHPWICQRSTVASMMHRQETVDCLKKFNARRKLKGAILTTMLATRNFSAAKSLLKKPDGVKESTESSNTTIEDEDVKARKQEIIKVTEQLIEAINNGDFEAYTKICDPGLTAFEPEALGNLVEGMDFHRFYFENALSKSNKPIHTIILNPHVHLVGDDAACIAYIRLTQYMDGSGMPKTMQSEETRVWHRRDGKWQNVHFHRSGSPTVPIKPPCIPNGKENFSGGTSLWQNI
T4 sequence (Q13233 whole entry): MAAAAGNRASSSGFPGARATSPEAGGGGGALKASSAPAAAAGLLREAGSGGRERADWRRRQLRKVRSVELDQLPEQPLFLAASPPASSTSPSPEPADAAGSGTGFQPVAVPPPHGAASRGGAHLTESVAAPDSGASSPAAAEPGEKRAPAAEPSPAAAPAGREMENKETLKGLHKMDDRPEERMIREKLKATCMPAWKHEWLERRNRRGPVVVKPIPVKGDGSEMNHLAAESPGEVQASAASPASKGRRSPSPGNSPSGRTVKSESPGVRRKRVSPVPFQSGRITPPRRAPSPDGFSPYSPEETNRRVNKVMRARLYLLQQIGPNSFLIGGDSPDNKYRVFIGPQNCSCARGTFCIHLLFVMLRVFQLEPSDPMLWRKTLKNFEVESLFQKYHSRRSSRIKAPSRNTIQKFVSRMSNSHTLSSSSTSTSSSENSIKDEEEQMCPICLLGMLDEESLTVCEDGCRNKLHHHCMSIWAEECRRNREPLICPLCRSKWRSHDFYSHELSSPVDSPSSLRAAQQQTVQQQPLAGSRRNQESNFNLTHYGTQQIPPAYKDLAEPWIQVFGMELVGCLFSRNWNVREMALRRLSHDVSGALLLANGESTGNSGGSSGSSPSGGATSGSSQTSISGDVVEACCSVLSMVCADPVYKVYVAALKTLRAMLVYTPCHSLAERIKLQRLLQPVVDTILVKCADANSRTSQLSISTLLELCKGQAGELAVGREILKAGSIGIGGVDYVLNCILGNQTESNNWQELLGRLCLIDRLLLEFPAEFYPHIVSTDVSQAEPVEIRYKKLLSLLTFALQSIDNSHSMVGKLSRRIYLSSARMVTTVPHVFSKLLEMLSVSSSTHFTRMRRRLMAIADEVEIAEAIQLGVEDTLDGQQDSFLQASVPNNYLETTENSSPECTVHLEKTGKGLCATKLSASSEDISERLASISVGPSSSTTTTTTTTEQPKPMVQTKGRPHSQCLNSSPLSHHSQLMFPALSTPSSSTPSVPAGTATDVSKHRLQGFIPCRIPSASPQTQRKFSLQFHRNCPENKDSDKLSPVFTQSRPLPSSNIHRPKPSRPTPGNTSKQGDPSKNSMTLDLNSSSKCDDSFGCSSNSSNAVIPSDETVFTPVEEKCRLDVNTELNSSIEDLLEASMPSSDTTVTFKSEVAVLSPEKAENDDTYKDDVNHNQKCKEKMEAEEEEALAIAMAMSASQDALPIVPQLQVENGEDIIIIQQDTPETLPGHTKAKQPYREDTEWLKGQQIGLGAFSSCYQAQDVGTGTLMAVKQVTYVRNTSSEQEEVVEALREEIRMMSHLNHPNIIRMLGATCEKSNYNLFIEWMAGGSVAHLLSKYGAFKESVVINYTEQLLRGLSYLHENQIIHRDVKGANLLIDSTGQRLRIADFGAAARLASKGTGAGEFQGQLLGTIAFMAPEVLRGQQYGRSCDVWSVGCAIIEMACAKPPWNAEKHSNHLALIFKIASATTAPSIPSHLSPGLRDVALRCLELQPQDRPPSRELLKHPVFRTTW

For `CNc1nc(Nc2ccc(C(=O)N3CCOCC3)cc2OC)nc2[nH]cc(C#N)c12` [Example 1, 2-((2-methoxy-4-(morpholine-4-carbonyl)phenyl)amino)-4-(methylamino)-7H-pyrrolo[2,3-d]pyrimidine-5-carbonitrile], the remaining binding at 1 µM in assay [1] amounted to 35%; in assay [2], 100%; in assay [3] it was 93%; in assay [4], 100%; in assay [5], 82%; in assay [6], 47%. Besides, in assay [7], the remaining binding at 1 µM came to 87%.
Turning to `CC1(Nc2nc(Nc3cnn([C@H]4CCN(C5COC5)C[C@@H]4F)c3Cl)nc3[nH]cc(C#N)c23)CC1` [Example 52, 2-((5-chloro-1-((3S,4S)-3-fluoro-1-(oxetane-3-yl)piperidine-4-yl)-1H-pyrazole-4-yl)amino)((1-methylcyclopropyl)amino)-7H-pyrrolo[2,3-d]pyrimidine-5-carbonitrile], the remaining binding at 1 µM is 2.2% in assay [1]; 100% in assay [2]; 17% in assay [3]; 81% in assay [4]; 65% in assay [5]; 1.1% in assay [6]. The molecule further came in with a remaining binding at 1 µM in assay [7] of 100%.
In the case of `CCNc1nc(Nc2ccc(C(=O)N3CCC(N4CCOCC4)CC3)cc2OC)nc2[nH]cc(C(F)(F)F)c12` [Example 104, (4-((4-(ethylamino)-5-(trifluoromethyl)-7H-pyrrolo[2,3-d]pyrimidine-2-yl)amino)-3-methoxyphenyl)(4-morpholinopiperidine-1-yl)methanone], the remaining binding at 1 µM in assay [1] was 100%; in assay [2], 100%; in assay [3] it was 100%; in assay [4], 83%; in assay [5], 66%; in assay [6], 75%. The molecule also displayed a remaining binding at 1 µM in assay [7] of 96%.
